For 23 compounds, IC50 and LD50 results are on record in patent publication US5446058A, “(Fused) benz(thio)amides” (Ono Pharmaceutical Co., Ltd., priority 1984, dated 1995).

As a reminder, the IC50 is the concentration at which inhibition is half-maximal. Broadly, the LD50 is the dose at which mortality reaches 50%. A higher LD50 goes with a less toxic substance.

One data set has as its system LTD4. Nature of the data set: Antagonistic activity on LTD4 in vitro (contraction of isolated ilem in a Magnus tube). The settings on record: antagonism of LTD4, guinea pig ilem, 5×10^-9 g/ml LTD4, 37° C. Here is the method: Antagonistic activity of the compounds of the present invention on LTD4 were measured by the following method.
A segment of ilem (2.5 cm) was removed from guinea pig 300-400 g and suspended in a Magnus tube containing Tyrodes solution. The tube was maintained at 37° C. and aerated with 95% O2 -5% CO2. After stabilizing from 30 mins, 5×10^-9 g/ml of LTD4 was added to the Magnus tube. Contraction length at the time and contraction lengths when the compounds of the present invention were challenged at some concentrations were measured, and the IC50 value were calculated.

A short description of data set [1]: Acute toxicity (LD50), intravenous, male mice. The conditions noted are these: mouse, in vivo, intravenous administration.
Another data set addresses 5α-reductase. Nature of the data set: Inhibitory activity on 5α-reductase in vitro. It counts as biochemical. The conditions noted are these: [4-14C]testosterone 5 μM, NADPH 5×10^-3 M, pH 7.4, 37° C., 60 mins; read-out: IC50, inhibitory activity on 5α-reductase (Table VII). Here is the method: Inhibitory activity of the compounds of the present invention on 5α-reductase was measured by the following method.
Inhibitory activity of the compounds of the present invention on 5α-reductase (IC50) in vitro was measured by the following method.
Compounds tested were incubated with radioactive [4-^14 C]testosterone (5 μM) and NADPH (5×10^-3 M) in the medium containing 5α-reductase, 0.09M Hepes (pH 7.4) and 0.22M sucrose at 37° C. for 60 mins. The reaction was stopped by adding solution of chloroform-methanol (1:2). The reaction mixture was centrifuged and the supernatant was separated by thin layer chromatography on silica gel using chloroform-methanol-acetic acid (99.2:0.6:0.2) as a developing solvent. Radioactivity of formed 5α-dihydrotestosterone was measured by TLC scanner. The values of IC50 were determined by the inhibition percents of 5α-reductase activity measured by the above procedure (see Endocrinal, Japon., 18, 179 (1971).).

[2] abbreviates: read-out: IC50 (Table III, comparison of activity by alkylene chain change).
Where [3] appears, read: read-out: IC50 (Table IV, comparison of activity by skeleton structure change (1)).
Where [4] appears, read: read-out: IC50 (Table V, comparison of activity by skeleton structure change (2)).
The mark [5] stands for this setting: read-out: IC50 (Table VI, comparison of activity by skeleton structure change (3)).

Like-named read-outs stand apart in the source and are kept apart here. Some results are limits rather than exact numbers.

In the case of `CCCCCc1ccc(CC(=O)Nc2cccc3c2OC(c2nn[nH]n2)CO3)cc1` (centres unmarked), the concentration for half-maximal inhibition (IC50) in the data set with LTD4 (setting [2]) turned out to be 8300 nM.

Consider `CCCCCc1ccc(CCC(=O)Nc2cccc3c2OC(c2nn[nH]n2)CO3)cc1` (centres unmarked), for which the half-maximal inhibitory concentration (IC50) with LTD4 (setting [2]) was 660 nM.

With `CCCc1ccc(/C=C/C=C/C(=O)Nc2cccc3c2OC(c2nn[nH]n2)CO3)cc1` (centres unmarked), the half-maximal inhibitory concentration (IC50) in the data set on LTD4 (setting [2]) is 74 nM. For the compound `CCCCCCCCCCCCC/C=C/C(=O)Nc1cccc2c1OC(c1nn[nH]n1)CO2` (centres unmarked), the half-inhibitory concentration (IC50) in the data set on LTD4 (setting [2]) is 20000 nM. With `CCCCCc1ccc(/C=C/C(=O)Nc2cccc3c2OC(c2nn[nH]n2)CO3)cc1` (centres unmarked), the half-maximal inhibitory concentration (IC50) in the data set with LTD4 (setting [3]) worked out at 370 nM. Take `CCCCCc1ccc(/C=C/C(=O)Nc2cccc3c(=O)cc(-c4nn[nH]n4)oc23)cc1`: in the data set with LTD4 (setting [3]), the 50% inhibitory concentration (IC50) stood at 30 nM.

With `CCCCCc1ccc(/C=C/C(=O)Nc2cccc3c2SC(c2nn[nH]n2)CS3)cc1` (centres unmarked), the IC50 with LTD4 (setting [3]) amounted to 690 nM. Take `CCCCCc1ccc(C(=O)Nc2cccc3c(=O)cc(-c4nn[nH]n4)oc23)cc1`: in the data set with LTD4 (setting [4]), the half-maximal inhibitory concentration (IC50) amounted to 180 nM. The same measure, in the same setting: the same measure for `CCCCCc1ccc(C(=O)Nc2cccc3c2OC(C(=O)O)CO3)cc1` (centres unmarked): 1200 nM. With `CCCCCCOc1ccc(C(=O)Nc2cccc3cc(-c4nn[nH]n4)oc23)cc1` [1 (501)], in the data set with LTD4 (setting [5]), the half-inhibitory concentration (IC50) is 76 nM. On the same count and under the same terms, the same measure for `CCCCCCOc1ccc(C(=O)Nc2cccc3c2OC(c2nn[nH]n2)C3)cc1` (centres unmarked) [1 (505)]: 205 nM; for `O=C(Nc1cccc2ccc(-c3nn[nH]n3)cc12)c1ccc(OCCCCc2ccccc2)cc1` [1 (514)]: 4.6 nM. On to `O=C(Nc1cccc2ccc(-c3nn[nH]n3)nc12)c1ccc(OCCCCc2ccccc2)cc1` [1 (516)], for which the IC50 with LTD4 (setting [5]) came out at 2.6 nM. As to `C=CCCCC=CCOc1ccc(C(=O)Nc2cccc3c2OC(c2nn[nH]n2)CCO3)cc1` (centres unmarked) [1 (518)], the concentration for half-maximal inhibition (IC50) in the data set with LTD4 (setting [5]) worked out at 33 nM. As for `O=C(Nc1cccc2c1OC(c1nn[nH]n1)CC2)c1ccc(OCCCCc2ccccc2)cc1` (centres unmarked) [1 (521)], in the data set with LTD4 (setting [5]), the IC50 turned out to be 1.3 nM. On to `O=C(Nc1cccc2c1OC(c1nnn[nH]1)CO2)c1ccc(OCCCCc2ccccc2)cc1` (centres unmarked) [1(76)], for which, in data set [1], the LD50 is > 1000 mg/kg. On the same count and under the same terms, as for `C=CCCC/C=C/COc1ccc(C(=O)Nc2cccc3c(=O)cc(-c4nn[nH]n4)oc23)cc1` [1(212)], the figure is > 1000 mg/kg; as for `O=C(Nc1cccc2c(=O)cc(-c3nnn[nH]3)oc12)c1ccc(OCCCCc2ccccc2)cc1` [1(230)], > 1000 mg/kg. On the same count and under the same terms, the same measure for `C=CCCC/C=C/COc1ccc(C(=O)Nc2cc(C)cc3c(=O)cc(-c4nn[nH]n4)oc23)cc1` [1(247)]: > 1000 mg/kg.

Consider `CCCCCc1ccc(C(C)=CC(=O)Nc2ccccc2SCCCC(=O)O)cc1` [4(206)], for which the IC50 on 5α-reductase is 4000 nM. Same read-out and setting: the same measure for `CCCCCc1ccc(C=CC(=O)Nc2ccccc2OCCCC(=O)O)cc1` [6(1)]: 5000 nM. Take `CCCCCc1ccc(C(=O)Nc2cccc3c2OC(c2nn[nH]n2)CO3)cc1` (centres unmarked) [drawing 40]: the half-maximal inhibitory concentration (IC50) with LTD4 (setting [2]) turned out to be 2600 nM. As for `CCCCCc1ccc(C(=O)Nc2cccc3c2OC(c2nn[nH]n2)CO3)cc1` (centres unmarked) [drawing 49], in the data set with LTD4 (setting [4]), the IC50 amounted to 2600 nM.
